Assay results reported in PubChem BioAssay (NCI).
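Values below derive from 48-hour exposures of cells grown in 96-well plates, with endpoints linearly interpolated between the two concentrations bracketing the appropriate inhibition level. Here, GI50 denotes the concentration required for 50% inhibition of growth. TGI is the concentration that stops growth completely.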

Legend:
Test in all cases: growth of human tumour cells (NCI), 48 h
[1] = system: CCRF-CEM leukemia
[2] = system: HL-60(TB) leukemia
[3] = system: HT29 colon
[4] = system: MCF7 breast
[5] = system: MOLT-4 leukemia
[6] = system: OVCAR-5 ovarian
[7] = system: OVCAR-8 ovarian
[8] = system: SK-MEL-2 melanoma
[9] = system: SNB-75 CNS
[10] = system: UACC-62 melanoma

Compound	TGI [1]	TGI [2]	TGI [3]	TGI [4]	TGI [5]	TGI [6]	TGI [7]	TGI [8]	TGI [9]	TGI [10]	GI50 [1]	GI50 [2]	GI50 [3]	GI50 [4]	GI50 [5]	GI50 [6]	GI50 [7]	GI50 [8]	GI50 [9]	GI50 [10]
N=C(CC(=O)Nc1ccccn1)c1ccccc1	> 100 µM	> 100 µM	> 100 µM	> 100 µM	> 100 µM	> 100 µM	> 100 µM	> 100 µM	> 100 µM	> 100 µM	–	–	–	–	–	–	–	–	–	–
C[C@]12CCC(=O)C[C@@H]1CC[C@@H]1[C@@H]2CC[C@]2(C)[C@@H](OC(=O)N(CCCl)N=O)CC[C@@H]12	–	> 33 µM	> 39 µM	> 45.6 µM	> 41.6 µM	22.4 µM	24 µM	16.8 µM	13.3 µM	11.7 µM	0.207 µM	0.259 µM	2.75 µM	4.71 µM	0.145 µM	6.31 µM	1.36 µM	3.47 µM	0.507 µM	0.377 µM
CCOC(=O)/C=C1/SC(=Nc2ccc(C#N)cc2)N(Cc2ccco2)C1=O	> 100 µM	5.76 µM	4.61 µM	12.7 µM	8.31 µM	16.1 µM	7.94 µM	25.3 µM	55.4 µM	5.25 µM	3.17 µM	2.38 µM	2.11 µM	2.7 µM	2.81 µM	3.36 µM	2.83 µM	7.65 µM	10.3 µM	2.23 µM
